Activity calls are given as the source filed them. Peptide text beside a SMILES is read from it.
Experiments:
[1] = biological target: Peptidyl-prolyl cis-trans isomerase A (Homo sapiens) (UniProt P62937); assay: Binding affinity to human recombinant cyclophilin-A up to 25 uM by isothermal titration calorimetry assay
[2] = biological target: Peptidyl-prolyl cis-trans isomerase A (Homo sapiens) (UniProt P62937); assay: Inhibition of PPIase activity of human recombinant cyclophilin-A using succinyl-Ala-Ala-Pro-Phe-4-nitroanilide as substrate at 100 uM by protease coupled assay
[3] = biological target: Peptidyl-prolyl cis-trans isomerase A (Homo sapiens) (UniProt P62937); assay: Inhibition of PPIase activity of human recombinant cyclophilin-A using succinyl-Ala-Ala-Pro-Phe-4-nitroanilide as substrate at 100 uM pretreated for 3 hrs before substrate addition by spectrophotometry

Peptidyl-prolyl cis-trans isomerase A (Homo sapiens), sequence (P62937 whole entry, looked up): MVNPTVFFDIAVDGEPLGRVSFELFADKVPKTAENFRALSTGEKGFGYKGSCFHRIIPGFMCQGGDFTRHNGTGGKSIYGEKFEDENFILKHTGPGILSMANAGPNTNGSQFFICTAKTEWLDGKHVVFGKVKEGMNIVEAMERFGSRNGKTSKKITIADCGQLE

N[C@@H](Cc1c[nH]c2ccccc12)C(=O)NCC(=O)N1CCC[C@H]1C(=O)O (H-Trp-Gly-Pro-OH)
inactive: Activity [1] | inhibition [2] | inhibition [3]

— ChEMBL document CHEMBL1909557, “Oligopeptide cyclophilin inhibitors: a reassessment” (Eur J Med Chem, 2011)
